Measurements: ChEMBL document CHEMBL3616412, “Re-engineering nalidixic acid's chemical scaffold: A step towards the development of novel anti-tubercular and anti-bacterial leads for resistant pathogens” (2015)
≈ marks a conversion by molar mass, not a printed value.

Assays:
Staphylococcus aureus [1] = experiment: Antibacterial activity against Staphylococcus aureus at 10 ug/disk after 24 hrs by agar plate disk diffusion method; assay type: functional; settings: read-out: DIZ
Escherichia coli [2] = experiment: Antibacterial activity against Escherichia coli at 10 ug/disk after 24 hrs by agar plate disk diffusion method; assay type: functional; settings: read-out: DIZ
Proteus vulgaris [3] = experiment: Antibacterial activity against Proteus vulgaris at 10 ug/disk after 24 hrs by agar plate disk diffusion method; assay type: functional; settings: read-out: DIZ
Pseudomonas aeruginosa [4] = experiment: Antibacterial activity against Pseudomonas aeruginosa at 10 ug/disk after 24 hrs by agar plate disk diffusion method; assay type: functional; settings: read-out: DIZ
Salmonella typhi [5] = experiment: Antibacterial activity against Salmonella typhi at 10 ug/disk after 24 hrs by agar plate disk diffusion method; assay type: functional, Salmonella enterica subsp. enterica serovar Typhi; settings: Salmonella enterica, read-out: DIZ
Salmonella paratyphi [6] = experiment: Antibacterial activity against Salmonella paratyphi at 10 ug/disk after 24 hrs by agar plate disk diffusion method; assay type: functional, Salmonella enterica subsp. enterica serovar Paratyphi A; settings: Salmonella enterica, read-out: DIZ
[7] = tested on: Mycobacterium tuberculosis; experiment: Antitubercular activity against Mycobacterium tuberculosis H37Rv ATCC 27294 after 5 days by micro alamar blue assay; assay type: functional
Staphylococcus aureus [8] = experiment: Antibacterial activity against Staphylococcus aureus after 24 hrs by agar dilution method; assay type: functional
Staphylococcus aureus [9] = experiment: Antibacterial activity against Staphylococcus aureus after 5 days by microdilution method; assay type: functional; settings: 120 h
Escherichia coli [10] = experiment: Antibacterial activity against Escherichia coli after 24 hrs by agar dilution method; assay type: functional
Escherichia coli [11] = experiment: Antibacterial activity against Escherichia coli after 5 days by microdilution method; assay type: functional; settings: 120 h
Proteus vulgaris [12] = experiment: Antibacterial activity against Proteus vulgaris after 24 hrs by agar dilution method; assay type: functional
Proteus vulgaris [13] = experiment: Antibacterial activity against Proteus vulgaris after 5 days by microdilution method; assay type: functional; settings: 120 h
Pseudomonas aeruginosa [14] = experiment: Antibacterial activity against Pseudomonas aeruginosa after 24 hrs by agar dilution method; assay type: functional
Pseudomonas aeruginosa [15] = experiment: Antibacterial activity against Pseudomonas aeruginosa after 5 days by microdilution method; assay type: functional; settings: 120 h
Salmonella typhi [16] = experiment: Antibacterial activity against Salmonella typhi after 24 hrs by agar dilution method; assay type: functional, Salmonella enterica subsp. enterica serovar Typhi; settings: Salmonella enterica
Salmonella typhi [17] = experiment: Antibacterial activity against Salmonella typhi after 5 days by microdilution method; assay type: functional, Salmonella enterica subsp. enterica serovar Typhi; settings: Salmonella enterica, 120 h
Salmonella paratyphi [18] = experiment: Antibacterial activity against Salmonella paratyphi after 24 hrs by agar dilution method; assay type: functional, Salmonella enterica subsp. enterica serovar Paratyphi A; settings: Salmonella enterica
Salmonella paratyphi [19] = experiment: Antibacterial activity against Salmonella paratyphi after 5 days by microdilution method; assay type: functional, Salmonella enterica subsp. enterica serovar Paratyphi A; settings: Salmonella enterica, 120 h

CCOC(=O)c1cn(CC)c2nc(C)ccc2c1=O
zone of inhibition at 10 µg/disc (Staphylococcus aureus [1]): 24 mm
zone of inhibition at 10 µg/disc (Escherichia coli [2]): 22 mm
zone of inhibition at 10 µg/disc (Proteus vulgaris [3]): 23 mm
zone of inhibition at 10 µg/disc (Pseudomonas aeruginosa [4]): 17 mm
zone of inhibition at 10 µg/disc (Salmonella typhi [5]): 21 mm
zone of inhibition at 10 µg/disc (Salmonella paratyphi [6]): 19 mm
inhibition (INH) [7]: 78%
MIC (Staphylococcus aureus [8]): 0.25 µg/mL (≈ 0.96 µM)
MIC (Staphylococcus aureus [9]): 0.25 µg/mL (≈ 0.96 µM)
MIC (Escherichia coli [10]): 0.5 µg/mL (≈ 1.92 µM)
MIC (Escherichia coli [11]): 0.5 µg/mL (≈ 1.92 µM)
MIC (Proteus vulgaris [12]): 0.5 µg/mL (≈ 1.92 µM)
MIC (Proteus vulgaris [13]): 0.5 µg/mL (≈ 1.92 µM)
MIC (Pseudomonas aeruginosa [14]): 2 µg/mL (≈ 7.68 µM)
MIC (Pseudomonas aeruginosa [15]): 2 µg/mL (≈ 7.68 µM)
MIC (Salmonella typhi [16]): 1 µg/mL (≈ 3.84 µM)
MIC (Salmonella typhi [17]): 1 µg/mL (≈ 3.84 µM)
MIC (Salmonella paratyphi [18]): 1 µg/mL (≈ 3.84 µM)
MIC (Salmonella paratyphi [19]): 1 µg/mL (≈ 3.84 µM)

CCn1cc(C(=O)NNC(N)=S)c(=O)c2ccc(C)nc21
zone of inhibition at 10 µg/disc (Staphylococcus aureus [1]): 28 mm
zone of inhibition at 10 µg/disc (Escherichia coli [2]): 29 mm
zone of inhibition at 10 µg/disc (Proteus vulgaris [3]): 30 mm
zone of inhibition at 10 µg/disc (Pseudomonas aeruginosa [4]): 26 mm
zone of inhibition at 10 µg/disc (Salmonella typhi [5]): 23 mm
zone of inhibition at 10 µg/disc (Salmonella paratyphi [6]): 23 mm
inhibition (INH) [7]: 84%
MIC (Staphylococcus aureus [8]): 0.12 µg/mL (≈ 0.393 µM)
MIC (Staphylococcus aureus [9]): 0.12 µg/mL (≈ 0.393 µM)
MIC (Escherichia coli [10]): 0.12 µg/mL (≈ 0.393 µM)
MIC (Escherichia coli [11]): 0.12 µg/mL (≈ 0.393 µM)
MIC (Proteus vulgaris [12]): 0.12 µg/mL (≈ 0.393 µM)
MIC (Proteus vulgaris [13]): 0.12 µg/mL (≈ 0.393 µM)
MIC (Pseudomonas aeruginosa [14]): 0.25 µg/mL (≈ 0.819 µM)
MIC (Pseudomonas aeruginosa [15]): 0.25 µg/mL (≈ 0.819 µM)
MIC (Salmonella typhi [16]): 0.5 µg/mL (≈ 1.64 µM)
MIC (Salmonella typhi [17]): 0.5 µg/mL (≈ 1.64 µM)
MIC (Salmonella paratyphi [18]): 0.5 µg/mL (≈ 1.64 µM)
MIC (Salmonella paratyphi [19]): 0.5 µg/mL (≈ 1.64 µM)

CCn1cc(C(=O)NN)c(=O)c2ccc(C)nc21
zone of inhibition at 10 µg/disc (Staphylococcus aureus [1]): 28 mm
zone of inhibition at 10 µg/disc (Escherichia coli [2]): 39 mm
zone of inhibition at 10 µg/disc (Proteus vulgaris [3]): 34 mm
zone of inhibition at 10 µg/disc (Pseudomonas aeruginosa [4]): 39 mm
zone of inhibition at 10 µg/disc (Salmonella typhi [5]): 28 mm
zone of inhibition at 10 µg/disc (Salmonella paratyphi [6]): 20 mm
inhibition (INH) [7]: 80%
MIC (Staphylococcus aureus [8]): 0.12 µg/mL (≈ 0.487 µM)
MIC (Staphylococcus aureus [9]): 0.12 µg/mL (≈ 0.487 µM)
MIC (Escherichia coli [10]): 0.06 µg/mL (≈ 0.244 µM)
MIC (Escherichia coli [11]): 0.06 µg/mL (≈ 0.244 µM)
MIC (Proteus vulgaris [12]): 0.06 µg/mL (≈ 0.244 µM)
MIC (Proteus vulgaris [13]): 0.06 µg/mL (≈ 0.244 µM)
MIC (Pseudomonas aeruginosa [14]): 0.25 µg/mL (≈ 1.02 µM)
MIC (Pseudomonas aeruginosa [15]): 0.25 µg/mL (≈ 1.02 µM)
MIC (Salmonella typhi [16]): 0.5 µg/mL (≈ 2.03 µM)
MIC (Salmonella typhi [17]): 0.5 µg/mL (≈ 2.03 µM)
MIC (Salmonella paratyphi [18]): 0.5 µg/mL (≈ 2.03 µM)
MIC (Salmonella paratyphi [19]): 0.5 µg/mL (≈ 2.03 µM)

CCn1cc(C(=O)NNC(=S)/N=c2\[nH]c3ccccc3[nH]c2=O)c(=O)c2ccc(C)nc21
zone of inhibition at 10 µg/disc (Staphylococcus aureus [1]): 20 mm
zone of inhibition at 10 µg/disc (Escherichia coli [2]): 19 mm
zone of inhibition at 10 µg/disc (Proteus vulgaris [3]): 18 mm
zone of inhibition at 10 µg/disc (Pseudomonas aeruginosa [4]): 19 mm
zone of inhibition at 10 µg/disc (Salmonella typhi [5]): 22 mm
zone of inhibition at 10 µg/disc (Salmonella paratyphi [6]): 18 mm
inhibition (INH) [7]: 93%
MIC (Staphylococcus aureus [8]): 1 µg/mL (≈ 2.22 µM)
MIC (Staphylococcus aureus [9]): 1 µg/mL (≈ 2.22 µM)
MIC (Escherichia coli [10]): 2 µg/mL (≈ 4.45 µM)
MIC (Escherichia coli [11]): 2 µg/mL (≈ 4.45 µM)
MIC (Proteus vulgaris [12]): 2 µg/mL (≈ 4.45 µM)
MIC (Proteus vulgaris [13]): 2 µg/mL (≈ 4.45 µM)
MIC (Pseudomonas aeruginosa [14]): > 4 µg/mL
MIC (Pseudomonas aeruginosa [15]): > 4 µg/mL
MIC (Salmonella typhi [16]): 2 µg/mL (≈ 4.45 µM)
MIC (Salmonella typhi [17]): 2 µg/mL (≈ 4.45 µM)
MIC (Salmonella paratyphi [18]): 2 µg/mL (≈ 4.45 µM)
MIC (Salmonella paratyphi [19]): 2 µg/mL (≈ 4.45 µM)

CCn1cc(C(=O)N/N=c2\[nH]c3ccccc3[nH]c2=O)c(=O)c2ccc(C)nc21
zone of inhibition at 10 µg/disc (Staphylococcus aureus [1]): 21 mm
zone of inhibition at 10 µg/disc (Escherichia coli [2]): 22 mm
zone of inhibition at 10 µg/disc (Proteus vulgaris [3]): 20 mm
zone of inhibition at 10 µg/disc (Pseudomonas aeruginosa [4]): 17 mm
zone of inhibition at 10 µg/disc (Salmonella typhi [5]): 14 mm
zone of inhibition at 10 µg/disc (Salmonella paratyphi [6]): 15 mm
inhibition (INH) [7]: 91%
MIC (Staphylococcus aureus [8]): 1 µg/mL (≈ 2.56 µM)
MIC (Staphylococcus aureus [9]): 1 µg/mL (≈ 2.56 µM)
MIC (Escherichia coli [10]): 2 µg/mL (≈ 5.12 µM)
MIC (Escherichia coli [11]): 2 µg/mL (≈ 5.12 µM)
MIC (Proteus vulgaris [12]): 2 µg/mL (≈ 5.12 µM)
MIC (Proteus vulgaris [13]): 2 µg/mL (≈ 5.12 µM)
MIC (Pseudomonas aeruginosa [14]): > 4 µg/mL
MIC (Pseudomonas aeruginosa [15]): > 4 µg/mL
MIC (Salmonella typhi [16]): > 4 µg/mL
MIC (Salmonella typhi [17]): > 4 µg/mL
MIC (Salmonella paratyphi [18]): > 4 µg/mL
MIC (Salmonella paratyphi [19]): > 4 µg/mL

CCn1cc(-c2n[nH]c(=S)n2-c2nc3ccccc3[nH]c2=O)c(=O)c2ccc(C)nc21
zone of inhibition at 10 µg/disc (Staphylococcus aureus [1]): 30 mm
zone of inhibition at 10 µg/disc (Escherichia coli [2]): 28 mm
zone of inhibition at 10 µg/disc (Proteus vulgaris [3]): 30 mm
zone of inhibition at 10 µg/disc (Pseudomonas aeruginosa [4]): 29 mm
zone of inhibition at 10 µg/disc (Salmonella typhi [5]): 22 mm
zone of inhibition at 10 µg/disc (Salmonella paratyphi [6]): 23 mm
inhibition (INH) [7]: 77%
MIC (Staphylococcus aureus [8]): 0.06 µg/mL (≈ 0.139 µM)
MIC (Staphylococcus aureus [9]): 0.06 µg/mL (≈ 0.139 µM)
MIC (Escherichia coli [10]): 0.06 µg/mL (≈ 0.139 µM)
MIC (Escherichia coli [11]): 0.06 µg/mL (≈ 0.139 µM)
MIC (Proteus vulgaris [12]): 0.5 µg/mL (≈ 1.16 µM)
MIC (Proteus vulgaris [13]): 0.5 µg/mL (≈ 1.16 µM)
MIC (Pseudomonas aeruginosa [14]): 1 µg/mL (≈ 2.32 µM)
MIC (Pseudomonas aeruginosa [15]): 1 µg/mL (≈ 2.32 µM)
MIC (Salmonella typhi [16]): 1 µg/mL (≈ 2.32 µM)
MIC (Salmonella typhi [17]): 1 µg/mL (≈ 2.32 µM)
MIC (Salmonella paratyphi [18]): 1 µg/mL (≈ 2.32 µM)
MIC (Salmonella paratyphi [19]): 1 µg/mL (≈ 2.32 µM)
